“Also recorded” adds a separate entry of the source.
Molecular target: T1, PERK (Mus musculus, UniProt Q9Z2B5)
T1 construct: from tissue; host or cells: mouse brain (C57BL/6 wild type; whole brain homogenates / frontal cortex)
T1 sequence (Q9Z2B5 29-1114): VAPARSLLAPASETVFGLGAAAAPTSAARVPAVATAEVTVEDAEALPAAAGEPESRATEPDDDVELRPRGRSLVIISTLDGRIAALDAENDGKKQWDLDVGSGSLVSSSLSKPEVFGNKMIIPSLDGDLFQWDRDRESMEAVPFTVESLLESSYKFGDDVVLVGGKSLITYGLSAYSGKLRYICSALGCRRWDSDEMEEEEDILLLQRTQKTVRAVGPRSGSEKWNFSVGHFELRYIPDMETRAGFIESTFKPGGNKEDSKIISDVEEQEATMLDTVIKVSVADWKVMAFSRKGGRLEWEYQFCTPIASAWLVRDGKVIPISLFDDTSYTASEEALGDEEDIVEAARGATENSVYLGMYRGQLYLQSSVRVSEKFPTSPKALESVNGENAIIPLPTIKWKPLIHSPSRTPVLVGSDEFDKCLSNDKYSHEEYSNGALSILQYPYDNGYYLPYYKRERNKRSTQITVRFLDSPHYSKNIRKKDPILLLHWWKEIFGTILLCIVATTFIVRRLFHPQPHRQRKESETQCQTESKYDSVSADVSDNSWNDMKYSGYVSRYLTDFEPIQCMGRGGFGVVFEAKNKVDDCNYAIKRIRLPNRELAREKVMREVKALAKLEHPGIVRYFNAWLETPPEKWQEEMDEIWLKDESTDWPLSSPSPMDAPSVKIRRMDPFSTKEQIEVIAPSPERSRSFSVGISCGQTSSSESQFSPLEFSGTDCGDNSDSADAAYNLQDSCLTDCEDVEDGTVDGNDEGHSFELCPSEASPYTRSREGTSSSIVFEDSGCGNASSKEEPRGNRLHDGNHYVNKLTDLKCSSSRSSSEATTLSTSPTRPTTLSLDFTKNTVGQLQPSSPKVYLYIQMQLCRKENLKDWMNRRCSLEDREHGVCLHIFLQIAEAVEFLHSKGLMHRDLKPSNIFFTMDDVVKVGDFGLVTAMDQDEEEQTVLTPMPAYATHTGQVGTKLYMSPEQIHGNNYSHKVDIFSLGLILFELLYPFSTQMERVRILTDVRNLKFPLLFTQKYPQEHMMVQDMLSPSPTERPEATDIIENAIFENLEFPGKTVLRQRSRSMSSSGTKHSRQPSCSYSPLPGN
Assay: Target engagement: Western blots of whole brain homogenates after intraperitoneal administration
Format: in vivo
Protocol: All animal work was conducted either on CR57BL/6 mice, obtained from Charles River Laboratories, Wilmington, Mass., USA, or on homozygous transgenic mice overexpressing human tau with the P301S mutation on a C57BL/6 background, originally developed by Michel Goedert (Xu et al. 2014), obtained by own breeding. Animals were kept at 23±1° C. under standard 12 h light-dark cycle with free access to food and water. They were handled according to the EU Council Directive 2010/63/EU, the Guide for the Care and Use of Laboratory Animals (National Research Council 2011) and the guidelines of the local institutional committee. The experiments were authorized by the local authority “Regierung von Oberbayern” under application number 55.2-1-54-2532-165-13.
5 mg of the PA compound CCT020312 (EMD Millipore, Billerica, Mass., USA) was first dissolved in 100 μl sterile DMSO (AppliChem, Darmstadt, Germany) and then diluted in sterile saline (B. Braun Medical, Melsungen, Germany) to achieve a stock solution of […].
For the initial short-term single-dose target-engagement trial, wild type mice were treated on three consecutive days with either 2 mg/kg of CCT020312 or saline of the equivalent volume by intraperitoneal injection. They were sacrificed by cervical dislocation four hours after the last injection.
For the short-term ascending-dose target-engagement trial, wild type mice at 15 weeks of age were treated on three consecutive days with once daily intraperitoneal (i.p.) injections of either 1, 2, or 5 mg/kg of CCT020312 or equivalent volumes of saline.
For the long-term single-dose target-engagement trial, wild type mice (n=3) at 9 weeks of age were treated for 6 weeks with once daily i.p. injections of either 2 mg/kg of CCT020312 or equivalent volumes of saline.
Mice were sacrificed by cervical dislocation twelve hours after the last injection. Their brains were frozen on dry ice and stored at −80° C. for Western blot analysis.
Frontal cortex tissue was dissected from the fresh-frozen sample on dry ice and suspended in 750 μl of T-PER Tissue Protein Extraction Reagent (Thermo Fisher Scientific) and 1× cOmplete Protease Inhibitor Cocktail Tablets (Hoffmann-La Roche) and 1× PhosSTOP Phosphatase Inhibitor Cocktail Tablets (Hoffmann-La Roche). The tissue piece was initially ground with a pestle inside a microcentrifuge tube on ice and then homogenized by sonification with Branson Sonifier 450 Analog (Branson, now Thermo Fisher Scientific) with 10×500 ms bursts at intensity level 3 on ice. The solution was then centrifuged at 5000 g for 15 minutes at 4° C. and the supernatant retrieved. Protein concentrations were determined using the BCA kit (Thermo Fisher Scientific) by heating the samples at 60° C. for 30 minutes and measuring the absorption on the NanoDrop 2000c spectrophotometer (Thermo Fisher Scientific).
20 μg of protein (200 μg for pPERK blots) were adjusted to equal concentrations between samples by dilution with M-PER and subsequently heated at 95° C. for 5 minutes with Roti®-Load 1 (Carl Roth). SDS-PAGE was performed using Any kD™ Mini-PROTEAN® TGX™ Gels (BioRad, Berkeley, Calif., USA) in a tris-glycine running buffer. The protein was blotted onto PVDF membrane (BioRad) at 70 V for 65 minutes whilst being cooled with ice. The membrane was blocked with 1× Roti®-Block solution (Carl Roth) for 1 h and then incubated at 4° C. overnight under gentle shaking with the primary antibody (see Table 6) in TBS with 5% BSA (Cell Signaling Technology) and 0.05% TWEEN (Sigma-Aldrich). The membranes were then washed and incubated with the species specific HRP-bound secondary antibody (Vector Laboratories, Burlingame, Calif., USA) at 1:2500 in 1× Roti®-Block solution for 2 h, followed by further washing and exposure to Clarity Western ECL Substrate (BioRad) or, in the case of MC1, to Amersham™ ECL™ Prime (GE Healthcare). […]

[1] = wild type mice, 2 mg/kg i.p. once daily for 6 weeks, 2 mg/kg
[2] = wild type mice, 1, 2 or 5 mg/kg i.p. once daily, three days

CCN(CC)CCC(=O)N1N=C(c2c(-c3ccccc3)c3cc(Br)ccc3[nH]c2=O)CC1c1ccc(Br)cc1 (stereo not drawn) [CCT020312, 6-bromo-3-[5-(4-bromo-phenyl)-1-(3-diethylamino-propionyl)-4,5-dihydro-1H-pyrazol-3-yl]-4-phenyl-1H-quinolin-2-one]
brain penetration (mice, intraperitoneal, inferred from brain pEIF2A): enters the brain
pPERK in the brain (wild type mice, 2 mg/kg i.p. once daily for 6 weeks, vs saline, 2 mg/kg): increase; also recorded: significantly increased
pNRF2 level in the brain [1]: significant increase; also recorded: significantly increased
total NRF2 levels in the brain [1]: without significant change; also recorded: no significant upregulation
total PERK level in the brain [1]: no obvious change; also recorded: no significant upregulation
pEIF2A in whole brain extracts (wild type mice, 2 mg/kg i.p. once daily, three days, vs saline): marked increase
pNRF2 level in brain [2]: dose-dependent increase
total NRF2 in brain [2]: without significant change
phosphorylated PERK in whole brain extracts (wild type mice, 1, 2 or 5 mg/kg i.p. once daily, three days, vs saline): marked increase; also recorded: significantly increased
